{"source": "patent US20250074946A1", "about": "“USE OF SE-DR AFFINITY PEPTIDE IN PREPARING DRUG FOR TREATING RHEUMATIC DISEASE” (HEBEI FITNESS BIOTECHNOLOGY CO., LTD., priority 2021, published 2025)", "key": {"[1]": {"system": "CIA rats", "experiment": "CIA rat model: inflammation score AUC and peripheral blood T-cell subtypes (Example 3)", "type": "in vivo", "details": "0.2 mmol", "procedure": "Collagen-induced arthritis (CIA) model was established by intradermal injection of the emulsion formulated using type II bovine collagen (CII) together with incomplete Freund's adjuvant (IFA) into the tail head of a female Lewis rat. After the model establishment, the morphological changes of rats' four paws were examined every day. […] Except for the model group, the dosage of polypeptide was all set as 0.2 mmol. A control group was also set up, in which the drug was injected into the tail vein once every other day for […]. The area under the curve (AUC) of the inflammation score was used for the efficacy analysis from the day the rats were enrolled, once every other day, until the end of administration."}, "[2]": {"system": "immune system of healthy monkeys", "experiment": "Immune indicators of cynomolgus monkeys after one month of administration (Example 5)", "type": "in vivo, cynomolgus monkey", "details": "once a day for 4 weeks, end of administration", "text": "Cynomolgus monkeys were used to investigate the effects of the SE-DR affinity peptide on the immune indicators of cynomolgus monkeys after continuous administration for one month. […] At the end of administration, the immune indicators, including the serum anti-FNS007 antibodies, the immunoglobulins of different serotypes, the serum complement, the peripheral blood T lymphocyte and the serum cytokines, were observed."}, "[3]": {"system": "CIA mice", "type": "in vivo, mouse", "procedure": "Male DBA/1 mice were used to establish CIA model. Methods: Mice were immunized by intradermally injecting an emulsion of bovine C II and CFA (containing 100 μg collagen) at the tail head. After 21 days, the mice were boosted once by intraperitoneally injecting an emulsion of bovine C II and IFA (containing 100 μg collagen). […] Another 10 female DBA/1 mice were not subjected to model establishment and set as the control group. PBS was administrated to both the model group and the control group. Corresponding drugs were administrated to the mice in each group by tail vein injection at the volume of 10 mL/kg, once every other day, for 28 consecutive days, followed by a recovery period of 28 days. The inflammation score of the four paws of the mice in each group was evaluated during the administration (once every other day), and the area under the curve (AUC) of the inflammation score was calculated during the administration. During drug discontinuation, the inflammation scores of the four paws of the […] in each group were continuously evaluated (once every other day), and the rats were sacrificed on day 28 after drug discontinuation. HE staining was performed on the ankle joint for tissue injury evaluation. The specific scoring criteria were as follows: 0=normal synovial tissue; 1=synovial hyperplasia and inflammatory cell infiltration; 2=pannus formation and cartilage erosion; 3=destruction of most of the cartilage with subchondral bone erosion; 4=loss of joint integrity, ankylosis."}, "[4]": {"details": "peripheral blood, […] after end of administration, flow cytometry"}}, "note": "Where no end group is shown, it is not given here.", "data": [{"sequence": "FKGEQAGAGE [APL2]", "values": [{"measurement": "Inflammation score and area under the time curve (AUC)", "setting": "[1]; female Lewis CIA rats, tail vein once every other day for 15 days", "value": "52.37 ± 33.69"}, {"measurement": "Th1 (%)", "setting": "[1]; [4]", "value": "0.16 ± 0.09", "unit": "%"}, {"measurement": "Th2 (%)", "setting": "[1]; [4]", "value": "4.53 ± 0.50", "unit": "%"}, {"measurement": "Th17 (%)", "setting": "[1]; [4]", "value": "0.87 ± 0.09", "unit": "%"}, {"measurement": "Treg (%)", "setting": "[1]; [4]", "value": "5.52 ± 0.68", "unit": "%"}, {"measurement": "CD3%", "setting": "[2]", "value": "63.37 ± 16.35", "unit": "%"}, {"measurement": "CD4%", "setting": "[2]", "value": "27.33 ± 6.66", "unit": "%"}, {"measurement": "CD8%", "setting": "[2]", "value": "21.74 ± 4.37", "unit": "%"}, {"measurement": "IFN-γ", "setting": "[2]", "value": "5.09 ± 0.52", "unit": "pg/mL"}, {"measurement": "IL-2", "setting": "[2]", "value": "4.62 ± 0.86", "unit": "pg/mL"}, {"measurement": "IL-4", "setting": "[2]", "value": "2.12 ± 0.42", "unit": "pg/mL"}, {"measurement": "TNF-α", "setting": "[2]", "value": "2.42 ± 0.51", "unit": "pg/mL"}, {"measurement": "inflammation score during drug discontinuation compared with that at the time of drug discontinuation", "setting": "[3]; 28 days of observation after stopping at day 28", "value": "could maintain the therapeutic effect"}, {"measurement": "Pathological score during 28 days of drug discontinuation", "setting": "[3]; HE staining of ankle joint, score 0-4", "value": "2.05 ± 0.87"}, {"measurement": "AUC, during drug discontinuation (day 29-56)", "setting": "[3]; inflammation score AUC after stopping administration at day 28", "value": "87.55 ± 40.08"}, {"measurement": "Incidence of infection in mice", "setting": "[3]; mouse, in vivo", "value": 0, "unit": "%"}, {"measurement": "Observation on the daily state of mice", "setting": "[3]; mouse, in vivo", "value": "No"}]}]}
